Key:
[1] = system: SCLC PDXs (TKO-2 and TKO-5); assay: SCLC patient-derived xenografts, tumor growth; assay type: in vivo, Nu/Nu nude mice; settings: 15mg/kg/d i.p., 2-4 weeks
Method: (§1) Six-week-old female Nu/Nu nude mice were purchased from Envigo (Indianapolis, IN) and housed under pathogen-free conditions in microisolator cages. The animal propagation protocol was approved by the Emory Institutional Animal Care and Use Committee (IACUC) and the Emory Animal Ethics Committee. 3×10^6 lung cancer cells were injected into subcutaneous tissue in the flank region of nude mice. The tumors were allowed to grow to an average volume of 150~200 mm^3 prior to initiation of therapy as previously described, [29]. Patient-derived xenografts (PDXs, TKO-002 and TKO-005) were established as part of an IRB-approved phase II co-clinical trial of arsenic trioxide in patients with relapsed SCLC who had failed standard platinum-based chemotherapy. Tumor samples were obtained by image-guided biopsy and were directly implanted into Nu/Nu nude mice without intervening propagation in plastic culture plates. Direct serial propagation of growing tumor occurred for up to 5 generations. The animal propagation protocol was approved by the Emory IACUC and the Emory Animal Ethics Committee. Mice with SCLC and NSCLC xenografts or PDXs were treated with BKA-073 intraperitoneally (i.p.) or venetoclax orally as indicated. During treatment, tumor volume (V) was measured by caliper measurements once every two days as described previously. Mice were euthanized by CO2 inhalation at the end of treatment. […]

Bak-/- A549 xenografts = assay: Bak-/- A549 xenografts, tumor growth; assay type: in vivo, Nu/Nu nude mice; settings: 12.5mg/kg/d i.p., 28 days
Method: as §1

SMILES: COc1ccc2nc3ccccc3c(NCCNCC(C)O)c2c1 (centres unmarked) [BKA-073]
- tumor growth [1]: potently suppressed tumor growth
- tumor growth (Bak-/- A549 xenografts): no inhibitory effect

— PMC8344021, “Discovery of Small Molecule Bak Activator for Lung Cancer Therapy” (Theranostics, 2021)
